Test: Lipophilicity (logkw) by reversed-phase chromatography (RP-HPLC)
Assay type: physicochemical
Conditions: for logkw (Experimental): extrapolated to pure water; for logkw (Table S2): intercept of logk vs methanol fraction, n = 4
Text: The main goal of the synthetic part was the synthesis of new derivatives of dicarboximides with decreased lipophilicity in comparison to the lead compounds, i.e., Ia–Ie and II. To reduce the lipophilicity of the new dicarboximides, a hydroxyalkyl chain connected with an aliphatic amine was introduced to the imides (Scheme 1). At the same time, the imide scaffold in derivatives from group 2 and 3 was the same as in lead compounds Ia–Ie and II, respectively (Figure 1). The structure of the imide was changed in derivatives 1b–1g. The lipophilicity of new derivatives was calculated using the Osiris Property Explorer program. For some compounds, lipophilicity was determined experimentally by a reversed-phase chromatography (detailed description is given in Materials and Methods and in the Supplementary Data, Table S2). Table 1 summarizes the calculated (clogP) and experimental (logkw) parameters of the lipophilicity of new derivatives.
The reversed-phase high-performance liquid chromatography (RP-HPLC) analysis was performed on a Merck–Hitachi LaChrom Elite System (Merck, Darmstadt, Germany) with diode array detector L-2455, thermostat L-2300, pump L-2130, and autosampler L-2200 and with the Waters XTerra MS RP-18 (3.5 μm, 150 × 4.6 mm) chromatographic column (Waters, Milford, MA, USA) as the stationary phase. The mobile phase consisted of methanol, water, and 0.1% (v/v) formic acid and was degassed by the use of the built-in membrane degasser. The methanol gradient grade for HPLC was purchased from Merck (Merck, Darmstadt, Germany) and formic acid from Polish Reagents (Polish Reagents, Gliwice, Poland); double-distilled water was used. Then, 5 μL of methanolic solutions (0.1%; m/v) of selected samples were applied to the chromatographic column by the use of an autosampler Hitachi L-2200 (LaChrom Elite, Hitachi-Merck, Darmstadt, Germany). The analysis was performed with the flow rate of 0.7 mL min^−1 in isocratic mode using various concentrations of organic modifier (methanol) in binary polar mobile phases; percentages of methanol in water were 45–70% (%, v/v) and changed by 5% per step. Chromatograms were detected at 254 nm and the temperature of the column was 25 °C. All experiments were repeated in triplicate, and the final results were taken to be the arithmetic means. Dead time was measured by the use of uracil (Calbiochem. Merck, Darmstadt, Germany). Statistical and regression analyses were performed using Statistica (ver. 13.3 for Windows). The chromatographic lipophilicity parameters ( logkW ) for selected samples were obtained by the extrapolation of the retention parameter logk to pure water, according to Equation (1):(1) logk=logkw−S·ϕ; where logkW is the value of the retention factor of a substance in pure water, S is the slope of the regression curve, and ϕ is the concentration of the organic modifier. The values of logk were calculated based on the raw HPLC data using the formula (2):(2) logk=logtR−t0/t0; where tR is the retention time and t0 is the dead retention time (determined for uracil).
The chromatographic lipophilicity parameters (logkௐ ) for selected samples were ob‐ tained by the extrapolation of the retention parame te r logk to pure water, according to […]
where logkௐ is the value of the retention factor of a substance in pure water, S is the slope of the regression curve, and φ is the concentration of the organic modifier. The values of logk were ca lcula ted based on the raw HPLC data using the formula: […]
logk ൌ log ሺ௧ೃ ି ௧బ௧బ ሻ (2) where tோ is the retention time and t଴ is the dead retention time (determined for ura‐ cil). The goodness of fit of the equation (1) to the experimental data was classified accord‐ ing to Jaffe (Jaffe, H. H. A Reexamination of the Hammet Equation. Chem. Rev. 1953, 53, In our RP‐HPLC experiments, the goodness of fit of the equation to the experi‐ mental data are excellent in most ca ses (r > 0.99). The F statistic val ues are, in all cases, […]

Row | Structure (SMILES) | logkw (Experimental) | logkw (Table S2)
1 | CCN(CC)CC(O)CN1C(=O)C2C(C1=O)C1(CC)C(=O)C2(CC)C(c2ccccc2)=C1c1ccccc1 (centres unmarked) [2d, 4-[3-(diethylamino)-2-hydroxypropyl]-1,7-diethyl-8,9-diphenyl-4-azatricyclo [5.2.1.0^2,6]dec-8-ene-3,5,10-trione] | 5.10 | 5.1042
2 | CC(C)(C)NCC(O)CN1C(=O)C2C(C1=O)C1(c3ccccc3)CC2(c2ccccc2)C(c2ccccc2)=C1c1ccccc1 (centres unmarked) [3c, 4-[3-(tert-butylamino)-2-hydroxypropyl]-1,7,8,9-tetraphenyl-4-azatricyclo[5.2.1.0^2,6]dec-8-ene-3,5-dione] | 6.06 | 6.0611
3 | CCC12C(=O)C(CC)(C(c3ccccc3)=C1c1ccccc1)C1C(=O)N(CC(O)CNC(C)(C)C)C(=O)C12 (centres unmarked) [2c, 4-[3-(tert-butylamino)-2-hydroxypropyl]-1,7-diethyl-8,9-diphenyl-4-azatricyclo [5.2.1.0^2,6]dec-8-ene-3,5,10-trione] | 4.74 | 4.7442
4 | CCN(CC)CC(O)CN1C(=O)C2C(C1=O)C1(c3ccccc3)CC2(c2ccccc2)C(c2ccccc2)=C1c1ccccc1 (centres unmarked) [3d, 4-[3-(diethylamino)-2-hydroxypropyl]-1,7,8,9-tetraphenyl-4-azatricyclo[5.2.1.0^2,6]dec-8-ene-3,5-dione] | 6.28 | 6.2845
